Patent publication US11497740B2, “Use of Jumonji C demethylase inhibitors for the treatment and prevention of chemotherapy resistance and radioresistance in cancer” (THE BOARD OF REGENTS OF THE UNIVERSITY OF TEXAS SYSTEM, priority 2016, dated 2022)

Legend:
[1] = tested on: H1299; experiment: Clonogenic survival with ionizing radiation, H1299; format: cell-based, Human; conditions: 16 nM JIB-04; for radiosensitization (clonogenic survival): drug 4 h before IR, 175 nM GSK-J4
Experimental: Cells were serially diluted to appropriate concentrations and plated into 60-mm dish in triplicate for 4 h. Then cells were treated with the indicated drugs, and irradiated 4 hours later with graded doses of radiation for concurrent treatment or irradiated and 4 hours later the drugs added for post-treatment. All cells were irradiated at room temperature in ambient air using a 137Cs source (Mark 1-68 irradiator, JL Shepherd & Associated). Surviving colonies were stained with crystal violet approximately 10 to 14 days later and colonies formed with more than 50 cells were counted. Clonogenic fraction of irradiated cells was normalized to the plating efficiency of unirradiated controls. The data are presented as the mean±SD. The curve S=e^−(αD+βD2) was fitted to the experimental data using a least square fit algorithm using the program Sigma Plot 11.0 (Systat Software, Inc.).

[2] = tested on: H1355 T16 xenografts; conditions: for toxicity in treated mice: mouse, in vivo
Experimental: Animals were housed under standard, sterile conditions at UTSW animal facility. All experiments were carried out under approved IACUC protocols and followed UTSW animal care procedures. For tumor growth rate studies and docetaxel+cisplatin drug response comparisons, 6-8 week old female NOD/SCID mice were used. For all subsequent in vivo drug response studies, 6 week old female athymic nude mice were used (Charles River Labs, Jackson Labs). Experimental details are provided in supplemental information.
Parental and resistant NSCLC cell lines (1×10^6 cells in PBS or RPMI for H1299; 5×10^6 cells in PBS/matrigel for H1355 and HCC4017) were injected subcutaneously into the right flank of mice. Tumor growth was monitored by caliper measurements and tumor volume was calculated by 0.5×length×width^2). Treatment was started when tumors reached ˜150-200 mm3. Drug/Vehicle therapy was given to tumor volume matched pairs. Docetaxel (3 mg/kg) and cisplatin (3 mg/kg) were given i.p. once a week for 3 weeks. […]

[3] = tested on: H1299 Parental cells; experiment: Microarray gene expression after 24 h treatment, H1299 Parental cells; format: cell-based, human; conditions: 0.2 μM JIB-04 or 1 μM GSK-J4, fold changes ≥1.5, P ≤0.05
Experimental: Gene expression profiling was performed using Illumina HumanWG-6 V3 BeadArrays (for NSCLC patient tumors) or Illumina HumanHT-12 V4 BeadArrays (for cell lines and xenografts). Cell line and xenograft microarrays included biological replicates (Cell lines: 5 for parental, 3 for most resistant variant, 2 for each intermediate resistance time-point; Xenografts: 3 tumors each for parental and resistant group). Data were pre-processed using the R package mbcb for background correction (Ding et al., 2008), then log-transformed and quantile-normalized with the R package preprocessCore or using in-house MATRIX software (MicroArrayTRansformation In eXcel). Microarray data can be found under GEO accession GSE77209.
Log ratios, unpaired t-test p values and color-coded heat maps were obtained using MATRIX. For comparisons involving progressively resistant cell line series, analyses were performed using R package by fitting linear regression model on gene expression data against the log transformed IC50 values as measures of drug response. We fitted beta-uniform mixture model to a set of p-values using the R package ClassComparison. Genes with p-values below the FDR cutoff of 0.1 were considered statistically significant. For xenograft data, differential gene expression analysis was performed by student's t-test. […]

[4] = tested on: H3K4me3 demethylase activity; experiment: Histone demethylase activity in tumor lysates by ELISA (H3K4me3); format: in vivo; conditions: H1299 T18 xenografts, drug-treated vs vehicle
Text: (§1) To evaluate whether the targeted KDM enzymatic activity was reduced in the JmjC inhibitor-treated tumors in vivo, the inventors measured histone demethylase activity in drug-treated and vehicle-control tumor lysates by ELISA. […] Altogether, the results confirmed reduction of the targeted KDM enzymatic activity with cytostatic/cytotoxic effects in JmjC inhibitor-treated chemoresistant xenografts.

[5] = tested on: H3K9me3 demethylase activity; experiment: Histone demethylase activity in tumor lysates by ELISA (H3K9me3); format: in vivo; conditions: H1299 T18 xenografts, drug-treated vs vehicle
Text: as §1

[6] = tested on: H1299 T18; experiment: MTS cell viability assay, H1299 T18 resistant variant vs H1299 Parental; format: cell-based, human; conditions: H1299 T18 vs H1299 Parental
Experimental: NSCLC lines were treated with paclitaxel+carboplatin combination, given in a ˜2:3 wt/wt ratio, to mirror the clinical dosage values of ˜225 mg/m2 and ˜330 mg/m2, paclitaxel and carboplatin respectively. Note that considering the molecular weights of the two drugs, this translates to approximately a 1 to 3.4 molar ratio. Drugs were given in cycles, following a drug on/drug off treatment scheme. Each cycle consisted of 4-5 days of drug treatment and drug-free culturing for about 1-2 weeks or more to allow the surviving cells to repopulate the plate. […] Untreated parental cells were simultaneously maintained at all times for comparison. Cell viability was assessed in 96-well plates using standard MTS assays (Promega). Treatment duration in MTS assays was 4 days. Drugs were tested in two- or four-fold serial dilutions, totaling 8 different drug concentrations, with 8 replicates per concentration. Response was validated in multiple replicate plates (n≥3).
Cell viability was assessed by standard MTS assays using Promega's CellTiter reagents. Eight drug concentrations given as two- or four-fold dilutions were tested for each chemotherapeutic agent. In addition, each experiment contained eight replicates per concentration and the entire assay was performed in multiple replicates (n≥3).

[7] = tested on: H1299 T18 cells; experiment: Microarray gene expression after 24 h treatment, H1299 T18 cells; format: cell-based, human; conditions: for expression difference of top up-regulated gene / gene expression changes (total probes): 24 h; for expression difference of top up-regulated gene / gene expression changes (total probes) / Illumina probes reversed in expression / genes reversed in expression: 0.2 μM JIB-04 or 1 μM GSK-J4; for gene expression changes (total probes): fold changes ≥1.5, P ≤0.05; for Illumina probes reversed in expression / genes reversed in expression: reversal of changes acquired with taxane-platin resistance
Experimental: Gene expression profiling was performed using Illumina HumanWG-6 V3 BeadArrays (for NSCLC patient tumors) or Illumina HumanHT-12 V4 BeadArrays (for cell lines and xenografts). […] Data were pre-processed using the R package mbcb for background correction (Ding et al., 2008), then log-transformed and quantile-normalized with the R package preprocessCore or using in-house MATRIX software ([…]). Microarray data can be found under GEO accession GSE77209. Log ratios, unpaired t-test p values and color-coded heat maps were obtained using MATRIX. For comparisons involving progressively resistant cell line series, analyses were performed using R package by fitting linear regression model on gene expression data against the log transformed IC50 values as measures of drug response. We fitted beta-uniform mixture model to a set of p-values using the R package ClassComparison. […] For xenograft data, differential gene expression analysis was performed by student's t-test. Using 35 gene signature, unsupervised hierarchical clustering (Eisen et al., 1998) was performed to separate neoadjuvant chemotherapy treated patients into two groups. Clustering was based on Euclidean distance matrix and maximum linkage method. Kaplan-Meier survival analysis and multivariate Cox regression were performed by R survival package and replotted using Graphpad Prism 6.00 (GraphPad Software, La Jolla, Calif. USA). R code is provided in […] report.

SMILES | radiosensitization (clonogenic survival) [1] | toxicity in treated mice [2] | gene expression changes (total probes) [3] | H3K4me3 demethylase activity in tumor lysates [4] | H3K9me3 demethylase activity in tumor lysates [5] | sensitivity of resistant variant compared to parental cells [6] | expression difference of top up-regulated gene [7] | gene expression changes (total probes) [7] | Illumina probes reversed in expression [7] | genes reversed in expression [7] | radiosensitization, JIB-04 before IR vs 4 h post-irradiation [1] | change in tumor volume relative to treatment start ([2]; GSK-J4 100 mg/kg i.p. 5x per week, JIB-04 50 mg/kg oral gavage 3x per week, 4 weeks) | H1299 T18 SR (Selectivity Ratio) ([6]; SR = [IC50 of Parental]/[IC50 of Resistant]) | top reversed down-regulated gene, fold change (down) ([7]; LEAP2 for JIB-04, TAF9B for GSK-J4) | top reversed up-regulated gene, fold change (up) ([7]; YPEL2 for JIB-04, BNIP3 for GSK-J4)
CCOC(=O)CCNc1cc(N2CCc3ccccc3CC2)nc(-c2ccccn2)n1 [GSK-J4] | failed to radiosensitize | No appreciable toxicity | 224 probes | without reducing H3K4me3 or H3K9me3 demethylase activity | without reducing H3K4me3 or H3K9me3 demethylase activity | higher sensitivity | ~25 fold | 710 probes | 110 probes | 108 genes | – | – | – | – | –
Clc1ccc(N/N=C(\c2ccccc2)c2ccccn2)nc1 [JIB-04] | had a radiosensitization/radioenhancement effect | No appreciable toxicity | 519 probes | significantly inhibited | significantly inhibited | several-fold hyper-sensitized | ~16 fold | 1469 probes | About 195 probes | 187 genes | significantly more robust when administering JIB-04 first | significant tumor shrinkage | 20.3 | ~5 fold | ~16 fold
